# Where two headings read alike, the source gives them in different places.
# Tests used:
# purified ppGalNAc-T3 = purified ppGalNAc-T3 (Homo sapiens, UniProt Q14435); settings: for Vmax: percent of control without inhibitor
# Method: (§1) A second stage reaction (UDP-GLO™) then converted the accumulated UDP product to ATP and then, via luciferase, to light.
# (§2) Secondary screen. Glycosylation assays using recombinant ppGalNAc-T2 and ppGalNAc-T3 were carried out using the UDP-GLO™ Glycosyltransferase assay kit (Promega, Madison, Wis., Cat #V6962), according to the manufacturer's recommendation. The reaction (25 μl) included 2.5 ng/μl purified enzyme, 25 μM UDP-GalNAc (Sigma-Aldrich, Cat #U5252), 12.5 μM EA2 peptide (AnaSpec, Mucin 10, AA153-165, […], Cat #AS-63841), 25 mM Tris-HCl (pH7.5) (Fisher Scientific, Cat #77-86-1), 5 mM MnCl2 (Fisher Scientific, Cat #M87-500), 2.5 mM CaCl2) (Fisher Scientific, Cat #C70-500) and 50 μM compound. The negative control was vehicle only (same reaction mixture with a matched percentage of DMSO instead of compound), whereas background was from the reaction carried out without enzyme and DMSO instead of compound. All reactions were incubated at 37° C. in a water bath for 30 min and then cooled to room temperature. Aliquots (5 μl) were then added to 384-well plate (Thermo Scientific, Waltham, Mass., Cat #164610) to which 5 μl of UDP Detection Reagent was also added. Duplicate measures were made for all reactions. After 1 h at room temperature the luminescent signals were determined using a Tecan Infinite M1000 (Tecan Group Ltd., Männedorf, Switzerland) with integration time set to 1000 msec. The background-subtracted average for each compound was expressed as a percentage of the negative control (taken as 100%). Compounds with ≥50% effect were considered direct modulators.
# (§3) Titration assays. For the sensor assay, about 200,000 cells expressing either sensor were seeded into Greiner Bio-One 24-well plates (Sigma-Aldrich, Cat #662160). After 24 h, the cells were incubated for another 6 h in the presence of 0-50 μM compound. To release the cells the medium was replaced with 200 μl 5 mM EDTA/PBS containing 110 nM MG dye. After 5 min at 37° C., fluorescence measurements (20,000 cells/well) were carried out as described above. For the biochemical assay, the assay conditions were identical except for variations in the compound or substrate concentrations as indicated in the figure legends. Data analysis was completed using Prism (Graph Pad Prism Inc., SCR_002798).
# purified ppGalNAc-T2 = purified ppGalNAc-T2 (Homo sapiens, UniProt Q10471); settings: purified enzyme, in vitro glycosylation
# Method: as §1, §2, §3
# MDA-MB231 cells [1] = settings: MDA-MB231, 5 μM T3Inh-1, 24 or 48 h
# Method: Proliferation assay. […] After 24, 48 or 72 h, the cells were released using trypsin and counted twice using a hemocytometer for 3 independent trials.
# purified ppGalNAc-T6 = purified ppGalNAc-T6 (Homo sapiens, UniProt Q8NCL4); settings: purified enzyme, in vitro glycosylation
# Method: as §2, with “Aliquots (5 μl) were then added to 384-well plate (Thermo Scientific, Waltham, Mass., Cat #164610) to which 5 μl of UDP Detection Reagent was also added. Duplicate measures were made for all reactions.” left out, “Compounds with ≥50% effect were considered direct modulators.” left out
# (§4) Titration assays. […] After 5 min at 37° C., fluorescence measurements (20,000 cells/well) were carried out as described above. […]
# HeLa cells [2] = settings: 6 h, 10 μM
# [3] = molecular target: purified lumenal domain of ppGalNAc-T3 (Homo sapiens, UniProt Q14435)
# From the text: Tryptophan fluorescence quenching assay. […] The value at the peak of emission at 324 nm was used for the binding curve analysis by Prism.
# ANGPTL3 = settings: media of HEK cells transfected with Myc-ANGPTL3, 6 h
# Method: (§5) Immunoblotting. The FLAG-tagged FGF23, Myc-tagged ANGPTL3 with the T225G modification, and untagged ppGalNAc-T3 (cloned into PCDNA 3.0 using BamH1 sites) were transfected into HEK cells using the JetPEI transfection reagent (VWR International, Radnor, Pa., Cat #101-40N) according to the manufacturer's instructions. After 24 h, the medium was replaced with serum-free MEM containing the compound for 6 h. The medium and cells were then collected and, after trichloroacetic acid precipitation of the medium, analyzed by immunoblot using anti-FLAG antibody at 1:1000 or anti-Myc antibody at 1:2000 and then the peroxidase-coupled secondary antibodies. Emission was captured and quantified using a CHEMIDOC™ Touch Imaging System with Image Lab Software (BioRad, SCR_014210). For ppGalNAc-T3 determinations in different cell lines, cells were collected and lysed with 100 μl buffer (10 mM Tris-HCl (pH8.0), 1 mM EDTA (ACROS ORGANICS, Cat #446085000), 1% Triton X-100, 0.1% sodium deoxycholate (Fisher Scientific, Cat #BP349-100), 0.1% SDS (Fisher Scientific, Cat #BP166-500), 140 mM NaCl (Fisher Scientific, Cat #5271-3), 1 mM PMSF (Sigma-Aldrich, Cat #PMSF-RO). Then 15 μl of each lysate was analyzed by immunoblotting using the purchased anti-ppGalNAc-T3 and anti-α-tubulin antibodies.
# FGF23 [4] = system: FGF23
# Method: as §5
# [5] = mice, 25 and 50 mg/kg intraperitoneal, 1 or 2 injections
# Method: (§6) Animal analysis. Wild-type C57BL/6 six to eight week old mice were purchased from Charles River Laboratories International Inc. (Wilmington, Mass.). Protocols, handling, and care of the mice conformed to protocols approved by the Institutional Animal Care and Use Committee of Carnegie Mellon University (CMU IACUC protocol AS16-005). The compound was dissolved in DMSO at 25 and 50 mg/ml then further diluted with PEG400 (Hampton Research, CA, USA, HR2-603) to create 5 and 10 mg/ml stocks for injection. Control (vehicle only: 20% DMSO, 80% PEG400) and experimental (25 or 50 mg/kg compound) animals received either single or double (separated by 24 h) intraperitoneal injections and, 24 h after the last injection, a cardiac blood draw was carried out. The cleaved/intact FGF23 ratio was determined using ELISA kits from Immunotopics (Carlsbad, Va., USA, Cat #60-6800, Cat #60-6300) with cleaved equaling total minus intact.
# FGF23 [6] = settings: mice; for ratio of cleaved/intact FGF23 in the blood: 1 or 2 injections, blood 24 h after last
# Method: as §6
# MDA-MB231 cells [7] = settings: 24 or 48 h
# Method: (§7) Cell invasion assay. Breast cancer MDA-MB231 cells were grown in DMEM medium (Corning, N.Y., Cat #10-013-CV) with 10% FBS and 100 IU/ml penicillin-streptomycin at 37° C. and 5% CO2 and then plated at a density of 1.32×104 in 0.3 ml of DMEM medium without FBS into the upper chamber of a BIOBOAT™ insert fitted with a 8.0 μm PET membrane (Corning, N.Y., Cat #354578). For migration assays, the filter was uncoated. […] Medium containing 10% FBS (0.6 ml) was placed into the lower chamber as a chemo attractant. The compound (final concentration of 5 μM) or a matching amount of DMSO was added to both chambers. After 24 h or 48 h the cells were fixed with −20° C. methanol for 15 min and then stained with Trypan blue for 5 min. Cells on the upper surface were removed using cotton swabs. Cells present on the underside of the membrane were photographed using an EVOS FL Cell Imaging System (Invitrogen, CA) and the images were thresholded for presentation and counting using Image J (National Institutes of Health, Bethesda, Md., SCR_003070). The assays involving MCF7 cells were identical except that they were performed 24 h post transfection.
# MCF7 cells = settings: MCF7, 5 μM T3Inh-1, 24 h, Matrigel-coated filters
# Method: as §7
# HeLa cells [8] = settings: 24 h treatment, 10 or 20 μM
# Method: Lectin staining. […] After staining, the cells were washed twice, lysed with 0.2% Triton X-100 (Fisher Scientific, Cat #BP151-100) for 15 min at 4° C., centrifuged at 14,000×g for 15 min at 4° C., and the supernatants were read in a Greiner Bio-One 96-well glass-bottom plate using a Tecan Infinite M1000 with excitation at 495 nm and emission from 510-550 nm. Three independent trials were carried out and the peak value (520 nm) was used for quantification.
# ppGalNAc-T3 = ppGalNAc-T3 (Homo sapiens, UniProt Q14435); settings: read-out: apparent IC50 of T3 sensor activation; HEK cells expressing T3 sensor, 6 h, 0-50 μM
# Method: (§8) Primary screen. HEK cells stably expressing the T2 sensor (containing ANGPTL3 linker sequence with T225G modification) or the T3 sensor (containing FGF23-based linker) were cultured in MEM (Corning, N.Y., Cat #10-010-CV) with 10% fetal bovine serum (FBS, Atlanta Biologicals, Flowery Branch, Ga., Cat #5111150) and 100 IU/ml penicillin-streptomycin (Sigma-Aldrich, Cat #P4333) at 37° C., 5% CO2. Positive controls were cell lines expressing matched sensors with the glycosylation site mutated (Δglycan), specifically T225G/T226G and T178G for the T2 and T3 sensors, respectively. Cells (50,000/well) were seeded in flat bottom 96-well-plates (Corning, N.Y., Cat #3997) and grown for 24 h. Compounds (the diversity set from ChemBridge Corporation (Chicago, Ill.) and the approved oncology drugs set V and the diversity set II from the National Cancer Institute Developmental Therapeutics Program) were then added to achieve a 10 μM final concentration. […] The plates were then transferred to an Accuri™ C6 flow cytometer (BD Biosciences) where GFP and MG fluorescence was measured using 488 nm and 640 nm for 10,000 cells per well. […]
# as §4
# ppGalNAc-T2 = ppGalNAc-T2 (Homo sapiens, UniProt Q10471); settings: HEK cells expressing T2 sensor, 6 h, 0-50 μM
# Method: as §8, §4
structure (smiles),measurement,setting,value
O=C(Nc1ccc(Nc2ccncc2)cc1)c1ccc(Nc2ccnc3ccccc23)cc1 [Compound T3Inh-1],inhibition of ppGalNAc-T3 in the secondary screen,"purified ppGalNAc-T3; 50 μM compound, versus ppGalNAc-T2",strong and selective inhibitor
same,IC50,"purified ppGalNAc-T3; read-out: IC50 of inhibition of ppGalNAc-T3, purified enzyme, in vitro glycosylation",7 µM
same,Ki,purified ppGalNAc-T3; substrate varied: Peptide (EA2),9.9 µM
same,Vmax,"purified ppGalNAc-T3; substrate varied: Peptide (EA2), 7.5 μM T3Inh-1",82%
same,Vmax,"purified ppGalNAc-T3; substrate varied: Peptide (EA2), 15 μM T3Inh-1",36%
same,Ki,purified ppGalNAc-T3; substrate varied: UDP-GalNAc,2.9 µM
same,Vmax,"purified ppGalNAc-T3; substrate varied: UDP-GalNAc, 7.5 μM T3Inh-1",71%
same,Vmax,"purified ppGalNAc-T3; substrate varied: UDP-GalNAc, 15 μM T3Inh-1",56%
same,inhibition of ppGalNAc-T2,purified ppGalNAc-T2,undetectable
same,effect on cell proliferation,MDA-MB231 cells [1],no discernable effect
same,activity against ppGalNAc-T6,purified ppGalNAc-T6,lacked activity
same,"localization or expression level of ppGalNAc-T3, ppGalNAc-T2 or any other Golgi marker tested",HeLa cells [2],no change
same,Kd,"[3]; read-out: apparent Kd of direct binding, quenching at 324 nm",17 µM
same,affinity of binding to GalNAc-T3,[3]; stated in words,low micromolar
same,HEK cell proliferation,"HEK cells; 0-50 μM, 24, 48, 72 h, cell counting",did not affect
same,toxicity,"HEK cells; HEK cells, continuous exposure 24, 48, 72 h",no toxicity
same,secreted intact ANGPTL3,ANGPTL3,remained high at all concentrations
same,intact and cleaved FGF23 in cell lysates,"FGF23 [4]; cell extracts, 6 h, also with 100 μM chloroquine",no change
same,half-max of increase in ratio of cleaved/intact FGF23,"FGF23 [4]; media of HEK cells co-expressing FGF23 and ppGalNAc-T3, 6 h",14 µM
same,secreted intact FGF23,"FGF23 [4]; media, 6 h, increasing concentrations",dose-dependent loss
same,effects on animal health,[5],no apparent ill effects
same,ratio of cleaved/intact FGF23 in the blood,FGF23 [6]; 25 mg/kg intraperitoneal,robust and statistically significant increase
same,ratio of cleaved/intact FGF23 in the blood,FGF23 [6]; 50 mg/kg intraperitoneal,robust and statistically significant increase
same,increase of level of proteolyzed C-terminal FGF23 fragment,FGF23 [6]; intraperitoneal injection,8 fold
same,inhibition of invasion,"MDA-MB231 cells [7]; 5 μM T3Inh-1, Matrigel-coated filters",98%
same,inhibition of migration,"MDA-MB231 cells [7]; 5 μM T3Inh-1, uncoated filters",> 80%
same,increase of invasion caused by ppGalNAc-T3 transfection,MCF7 cells,strongly blocked
same,staining intensity by lectin Concanavalin A (ConA),HeLa cells [8],did not affect
same,staining intensity by lectin Sambucus Nigra (SNA),HeLa cells [8],did not affect
same,staining intensity by lectin Vicia Villosa (VVA),HeLa cells [8],did not affect
same,staining intensity by lectin Wheat germ agglutinin (WGA),HeLa cells [8],did not affect
same,IC50,ppGalNAc-T3,12 µM
same,activity towards the T2 sensor,ppGalNAc-T2,little or no activity

# Source: patent US11730730B2, “Cell-based screening and compounds that modulate GalNAc-transferases” (Carnegie Mellon University, priority 2018, dated 2023)
